Data as given in ChEMBL document CHEMBL2375290, “Nonclassical antifolates, part 3: synthesis, biological evaluation and molecular modeling study of some new 2-heteroarylthio-quinazolin-4-ones” (Eur J Med Chem, 2013).

What was measured:
[1] = test system: UACC-62; assay: Cytotoxicity against human UACC62 cells at 10 uM after 48 hrs by coulter counter analysis; format: functional; details: UACC-62, 48 h, read-out: GI
[2] = test system: Pseudomonas aeruginosa; assay: Antimicrobial activity against Pseudomonas aeruginosa at 200 ug after 24 hrs by agar disc diffusion method; format: functional; details: read-out: DIZ
[3] = test system: CAKI-1; assay: Cytotoxicity against human Caki1 cells at 10 uM after 48 hrs by coulter counter analysis; format: functional; details: CAKI-1, 48 h, read-out: GI
[4] = test system: MDA-MB-231; assay: Cytotoxicity against human MDA-MB-231 cells at 10 uM after 48 hrs by coulter counter analysis; format: functional; details: MDA-MB-231, 48 h, read-out: GI
[5] = test system: SNB-19; assay: Cytotoxicity against human SNB19 cells at 10 uM after 48 hrs by coulter counter analysis; format: functional; details: SNB-19, 48 h, read-out: GI
[6] = test system: LOX IMVI; assay: Cytotoxicity against human LOXIMVI cells at 10 uM after 48 hrs by coulter counter analysis; format: functional; details: read-out: GI
[7] = test system: IGROV-1; assay: Cytotoxicity against human IGROV1 cells at 10 uM after 48 hrs by coulter counter analysis; format: functional; details: IGROV-1, 48 h, read-out: GI
[8] = test system: Staphylococcus aureus; assay: Antimicrobial activity against Staphylococcus aureus at 200 ug after 24 hrs by agar disc diffusion method; format: functional; details: read-out: DIZ
[9] = test system: A498; assay: Cytotoxicity against human A498 cells at 10 uM after 48 hrs by coulter counter analysis; format: functional; details: A498, 48 h, read-out: GI
[10] = test system: OVCAR-4; assay: Cytotoxicity against human OVCAR4 cells at 10 uM after 48 hrs by coulter counter analysis; format: functional; details: OVCAR-4, 48 h, read-out: GI
[11] = test system: SNB-75; assay: Cytotoxicity against human SNB75 cells at 10 uM after 48 hrs by coulter counter analysis; format: functional; details: SNB-75, 48 h, read-out: GI
[12] = test system: Micrococcus luteus; assay: Antimicrobial activity against Micrococcus luteus at 200 ug after 24 hrs by agar disc diffusion method; format: functional; details: read-out: DIZ
[13] = test system: RXF 393; assay: Cytotoxicity against human RXF393 cells at 10 uM after 48 hrs by coulter counter analysis; format: functional; details: RXF 393, 48 h, read-out: GI
[14] = test system: SK-MEL-5; assay: Cytotoxicity against human SK-MEL-5 cells at 10 uM after 48 hrs by coulter counter analysis; format: functional; details: SK-MEL-5, 48 h, read-out: GI
[15] = test system: MOLT-4; assay: Cytotoxicity against human MOLT4 cells at 10 uM after 48 hrs by coulter counter analysis; format: functional; details: MOLT-4, 48 h, read-out: GI
[16] = test system: T47D; assay: Cytotoxicity against human T47D cells at 10 uM after 48 hrs by coulter counter analysis; format: functional; details: read-out: GI
[17] = test system: Malme-3M; assay: Cytotoxicity against human MALME-3M cells at 10 uM after 48 hrs by coulter counter analysis; format: functional; details: read-out: GI
[18] = test system: Hs-578T; assay: Cytotoxicity against human Hs578T cells at 10 uM after 48 hrs by coulter counter analysis; format: functional; details: read-out: GI
[19] = test system: NCI-H522; assay: Cytotoxicity against human NCI-H522 cells at 10 uM after 48 hrs by coulter counter analysis; format: functional; details: NCI-H522, 48 h, read-out: GI
[20] = test system: SF-295; assay: Cytotoxicity against human SF295 cells at 10 uM after 48 hrs by coulter counter analysis; format: functional; details: SF-295, 48 h, read-out: GI
[21] = test system: RPMI-8226; assay: Cytotoxicity against human RPMI8226 cells at 10 uM after 48 hrs by coulter counter analysis; format: functional; details: RPMI-8226, 48 h, read-out: GI
[22] = test system: CCRF-CEM; assay: Cytotoxicity against human CCRF-CEM cells at 10 uM after 48 hrs by coulter counter analysis; format: functional; details: read-out: GI
[23] = test system: MCF7; assay: Cytotoxicity against human MCF7 cells at 10 uM after 48 hrs by coulter counter analysis; format: functional; details: MCF7, 48 h, read-out: GI
[24] = Cytotoxicity against human EKVX cells at 10 uM after 48 hrs by coulter counter analysis; format: functional; details: read-out: GI
[25] = test system: Bacillus subtilis; assay: Antimicrobial activity against Bacillus subtilis at 200 ug after 24 hrs by agar disc diffusion method; format: functional; details: read-out: DIZ
[26] = Cytotoxicity against human NCI-ADR-RES cells at 10 uM after 48 hrs by coulter counter analysis; format: functional; details: read-out: GI
[27] = test system: UO-31; assay: Cytotoxicity against human UO31 cells at 10 uM after 48 hrs by coulter counter analysis; format: functional; details: UO-31, 48 h, read-out: GI
[28] = test system: MDA-MB-435; assay: Cytotoxicity against human MDA-MB-435 cells at 10 uM after 48 hrs by coulter counter analysis; format: functional; details: MDA-MB-435, 48 h, read-out: GI
[29] = test system: Escherichia coli; assay: Antimicrobial activity against Escherichia coli at 200 ug after 24 hrs by agar disc diffusion method; format: functional; details: read-out: DIZ
[30] = test system: SN12C; assay: Cytotoxicity against human SN12C cells at 10 uM after 48 hrs by coulter counter analysis; format: functional; details: read-out: GI
[31] = target: T1, Dihydrofolate reductase (Bos taurus, UniProt P00376); assay: Inhibition of bovine DHFR after 2 mins by spectrophotometry
T1 sequence (P00376 whole entry): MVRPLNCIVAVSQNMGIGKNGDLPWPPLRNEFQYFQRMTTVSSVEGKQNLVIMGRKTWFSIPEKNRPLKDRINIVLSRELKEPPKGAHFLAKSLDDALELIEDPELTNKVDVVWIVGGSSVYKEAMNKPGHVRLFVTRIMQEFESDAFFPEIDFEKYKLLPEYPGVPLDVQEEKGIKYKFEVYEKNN

[32] = test system: SR; assay: Cytotoxicity against human SR cells at 10 uM after 48 hrs by coulter counter analysis; format: functional; details: read-out: GI
[33] = test system: A549; assay: Cytotoxicity against human A549/ATCC cells at 10 uM after 48 hrs by coulter counter analysis; format: functional; details: A549, 48 h, read-out: GI
[34] = test system: HL-60(TB); assay: Cytotoxicity against human HL-60(TB) cells at 10 uM after 48 hrs by coulter counter analysis; format: functional; details: HL-60, 48 h, read-out: GI
[35] = test system: NCI-H226; assay: Cytotoxicity against human NCI-H226 cells at 10 uM after 48 hrs by coulter counter analysis; format: functional; details: NCI-H226, 48 h, read-out: GI
[36] = test system: NCI-H23; assay: Cytotoxicity against human NCI-H23 cells at 10 uM after 48 hrs by coulter counter analysis; format: functional; details: NCI-H23, 48 h, read-out: GI
[37] = test system: PC-3; assay: Cytotoxicity against human PC3 cells at 10 uM after 48 hrs by coulter counter analysis; format: functional; details: PC-3, 48 h, read-out: GI

SMILES	inhibition of growth at 10 µM [1] [%]	zone of inhibition at 200 µg/disc [2] [mm]	inhibition of growth at 10 µM [3] [%]	inhibition of growth at 10 µM [4] [%]	inhibition of growth at 10 µM [5] [%]	inhibition of growth at 10 µM [6] [%]	inhibition of growth at 10 µM [7] [%]	zone of inhibition at 200 µg/disc [8] [mm]	inhibition of growth at 10 µM [9] [%]	inhibition of growth at 10 µM [10] [%]	inhibition of growth at 10 µM [11] [%]	zone of inhibition at 200 µg/disc [12] [mm]	inhibition of growth at 10 µM [13] [%]	inhibition of growth at 10 µM [14] [%]	inhibition of growth at 10 µM [15] [%]	inhibition of growth at 10 µM [16] [%]	inhibition of growth at 10 µM [17] [%]	inhibition of growth at 10 µM [18] [%]	inhibition of growth at 10 µM [19] [%]	inhibition of growth at 10 µM [20] [%]	other results
O=C(O)c1cccnc1Sc1nc2ccc(Cl)cc2c(=O)n1-c1ccccc1	< 10	8	< 10	10.4	< 10	< 10	< 10	15	< 10	< 10	< 10	8	< 10	< 10	< 10	15	< 10	< 10	< 10	< 10	inhibition of growth at 10 µM [21]: < 10%; inhibition of growth at 10 µM [22]: < 10%; inhibition of growth at 10 µM [23]: < 10%; inhibition of growth at 10 µM [24]: < 10%; zone of inhibition at 200 µg/disc [25]: 16 mm; inhibition of growth at 10 µM [26]: < 10%; inhibition of growth at 10 µM [27]: 20.5%; inhibition of growth at 10 µM [28]: < 10%; zone of inhibition at 200 µg/disc [29]: 8 mm; inhibition of growth at 10 µM [30]: < 10%; IC50 [31]: 8000 nM; inhibition of growth at 10 µM [32]: < 10%; inhibition of growth at 10 µM [33]: < 10%; inhibition of growth at 10 µM [34]: < 10%; inhibition of growth at 10 µM [35]: 15.1%; inhibition of growth at 10 µM [36]: < 10%; inhibition of growth at 10 µM [37]: < 10%
COc1cc2nc(Sc3cnc(N)s3)n(Cc3ccccc3)c(=O)c2cc1OC	< 10	8	25.4	19.1	< 10	10.8	< 10	17	< 10	< 10	13.3	8	< 10	12.9	< 10	< 10	< 10	< 10	19.8	< 10	inhibition of growth at 10 µM [21]: 15.9%; inhibition of growth at 10 µM [22]: 22.8%; inhibition of growth at 10 µM [23]: < 10%; inhibition of growth at 10 µM [24]: 16.1%; zone of inhibition at 200 µg/disc [25]: 18 mm; inhibition of growth at 10 µM [26]: < 10%; inhibition of growth at 10 µM [27]: 17.4%; inhibition of growth at 10 µM [28]: < 10%; zone of inhibition at 200 µg/disc [29]: 16 mm; inhibition of growth at 10 µM [30]: < 10%; IC50 [31]: 3000 nM; inhibition of growth at 10 µM [32]: < 10%; inhibition of growth at 10 µM [33]: < 10%; inhibition of growth at 10 µM [34]: < 10%; inhibition of growth at 10 µM [35]: 10.4%; inhibition of growth at 10 µM [36]: < 10%; inhibition of growth at 10 µM [37]: 22.4%
Cc1ccc2nc(Sc3cnc(N)s3)n(Cc3ccccc3)c(=O)c2c1	12.2	8	30.3	15.2	< 10	10.4	21.8	8	< 10	< 10	20.4	8	< 10	< 10	< 10	< 10	12.3	< 10	< 10	17.3	inhibition of growth at 10 µM [21]: 16.8%; inhibition of growth at 10 µM [22]: < 10%; inhibition of growth at 10 µM [23]: 10.8%; inhibition of growth at 10 µM [24]: 25.9%; zone of inhibition at 200 µg/disc [25]: 8 mm; inhibition of growth at 10 µM [26]: < 10%; inhibition of growth at 10 µM [27]: 29.4%; inhibition of growth at 10 µM [28]: < 10%; zone of inhibition at 200 µg/disc [29]: 8 mm; inhibition of growth at 10 µM [30]: < 10%; IC50 [31]: 1000 nM; inhibition of growth at 10 µM [32]: < 10%; inhibition of growth at 10 µM [33]: < 10%; inhibition of growth at 10 µM [34]: < 10%; inhibition of growth at 10 µM [35]: 19.9%; inhibition of growth at 10 µM [36]: < 10%; inhibition of growth at 10 µM [37]: 22.6%
Nc1ncc(Sc2nc3ccc(Cl)cc3c(=O)n2Cc2ccccc2)s1	14.4	8	25.6	11.2	< 10	14.9	12	16	11.2	13.8	10.7	8	< 10	< 10	16.8	10.4	10.8	< 10	16	16.6	inhibition of growth at 10 µM [21]: 18.9%; inhibition of growth at 10 µM [22]: 13.7%; inhibition of growth at 10 µM [23]: < 10%; inhibition of growth at 10 µM [24]: 11.9%; zone of inhibition at 200 µg/disc [25]: 18 mm; inhibition of growth at 10 µM [26]: < 10%; inhibition of growth at 10 µM [27]: 14.8%; inhibition of growth at 10 µM [28]: < 10%; zone of inhibition at 200 µg/disc [29]: 15 mm; inhibition of growth at 10 µM [30]: < 10%; IC50 [31]: 2000 nM; inhibition of growth at 10 µM [32]: < 10%; inhibition of growth at 10 µM [33]: < 10%; inhibition of growth at 10 µM [34]: < 10%; inhibition of growth at 10 µM [35]: 17.1%; inhibition of growth at 10 µM [36]: < 10%; inhibition of growth at 10 µM [37]: 28.2%
